In US20110117189A1, “OPHTHALMIC COMPOSITIONS FOR TREATING PATHOLOGIES OF THE POSTERIOR SEGMENT OF THE EYE” (S.I.F.I. Societa' Industria Farmaceutica Italiana S.P.A., priority 2008, published 2011):

Experiment: In-vivo pharmacokinetic test: ocular distribution of dexamethasone after single administration to the conjunctival sac (LC/MS/MS)
Set-up: species or system pigmented rabbits
Details: treated and non-treated eyes
Experimental: Dexamethasone concentration in ocular tissues was determined by a LC/MS/MS method.
Two experiments were carried out on male pigmented rabbits weighing 1.8-2.2 kg divided into 2 treatment groups, of which only one eye was treated with: 50 μl of the composition containing dexamethasone sodium phosphate in 1% xanthan base (Group I) or 50 μl of dexamethasone sodium phosphate in solution (Group II). In the first experiment the animals were then killed at the following times: 30, 60, 90, 120, 180 and 240 minutes after treatment (n=6 animals for each time point). In the second experiment the animals were killed at these times: 15, 30 and 60 minutes after treatment (n=4 animals for each time point). The active principle was determined in the aqueous humour, vitreous, retina-choroid and plasma after suitable extraction from the biological tissue, by a LC/MS/MS method.

Q: With C[C@@H]1C[C@H]2[C@@H]3CCC4=CC(=O)C=C[C@]4(C)[C@@]3(F)[C@@H](O)C[C@]2(C)[C@@]1(O)C(=O)CO [dexamethasone] as the compound, how does the “Concentrations of dexamethasone in the vitreous” value read?
A: Its value is “less than 10 ng/ml”.
